Measurements published in patent US20160346412A1, “A KIT FOR PREPARING A RADIOPHARMACEUTICAL” (THE SOUTH AFRICAN NUCLEAR ENERGY CORPORATION LIMITED, priority 2014, published 2016).

Tests used:
[1] = aqueous medium in the published syntheses; cited from earlier work
[2] = Stability of the ligand in water; assay type: physicochemical; settings: free ligand versus metal-chelated ligand
Method: The production of kits of ECDG, a water labile ligand, is problematic as the normal kit procedure includes a lyophilisation step in the aqueous phase wherein the pure ligand active pharmaceutical ingredient (API) is dissolved in water/saline containing at least one each of a reducing agent, additive and buffer, distributed in vials and freeze dried. At the hospital the ^99mTc in saline is added to the kit and reconstituted. The ^99mTc is then chelated to the ECDG ligand and the ^99mTc-ECDG radiopharmaceutical is ready for injection.

Row | SMILES | sensitivity to air, light, water and temperature [1] | stability in water [2]
1 | O=C(NC1C(O)O[C@H](CO)[C@@H](O)[C@@H]1O)C(CS)NCCN[C@@H](CS)C(=O)NC1C(O)O[C@H](CO)[C@@H](O)[C@@H]1O (stereo partly drawn) [ECDG, ethylenedicysteine deoxyglucosamine] | air, light, water and temperature sensitive | breaks down in water almost immediately
2 | O=C(NC1C(O)O[C@H](CO)[C@@H](O)[C@@H]1O)C1C[S][Tc]23(=[O])[S]C[C@@H](C(=O)NC4C(O)O[C@H](CO)[C@@H](O)[C@@H]4O)[N]2CC[N]13 (stereo partly drawn) [^99mTc-ECDG, ^99mTechnetium-ethylenedicysteine deoxyglucosamine] | – | stable in water
